Measured values: patent publication US9770026B2, “Substituted pyrimidine compound and uses thereof” (Shenyang Sinochem Agrochemicals R&D Co., Ltd., priority 2012, dated 2017)

Key:
corn rust = experiment: protectant activity in vivo against corn rust
[1] = test system: Green peach aphids (Myzus Persicae Sulzer); experiment: bioactivity test against green peach aphid, airbrush foliar spray; format: in vivo
How it was run: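 Death rate was scored at 48 hrs, held at 25±1 C and 60±5% RH, following airbrush foliar spray (0.5 mL, 10 psi) onto cabbage leaf discs bearing about 15-30 aphids. Test solutions: compound dissolved in 1:1 acetone:methanol, brought to concentration with 0.1% tween 80 water.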

Diamond back moth = experiment: insecticidal activity against diamond back moth, airbrush spray; format: in vivo
How it was run: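 Airbrush leaf-disc spray test: both faces of 2 cm cabbage discs received 0.5 ml of test solution at 0.7 kg/cm^2. Solutions were made in acetone:methanol (1:1) and brought to concentration with 0.1% Tween 80 in water. Ten second-instar larvae per disc, triplicates, were held at 25° C and 60˜70% R.H., with mortality recorded at 72 hrs.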

armyworm = experiment: bioactivity test against armyworm, airbrush spray; format: in vivo; conditions: for control (test results against armyworm): 600 ppm, mortality after 72 h
carmine spider mite = experiment: bioactivity test against carmine spider mite, airbrush spray; format: in vivo; conditions: for pest or weed control at 100 µg/mL: 100 mg/L; for pest or weed control at 600 µg/mL: 600 mg/L
How it was run: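 Broadbean seedlings infested with adult mites were sprayed with compound (acetone/methanol stock diluted in 0.1% Tween 80 water) by airbrush at 0.7 kg/cm^2, 0.5 ml. Three replicates were run. Mortality was scored after 72 hrs.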

wheat powdery mildew = experiment: protectant activity in vivo against wheat powdery mildew; conditions: for protectant activity against wheat powdery mildew in vivo: 400 ppm
[2] = 10 ppm, death rate after 48 hrs
[3] = 100 ppm, death rate after 48 hrs
[4] = 600 ppm, death rate after 48 hrs
[5] = 100 ppm, mortality after 72 hrs
[6] = 600 ppm, mortality after 72 hrs
[7] = Tetranychus cinnabarinus, 72 h, contrastive test, read-out: Insecticidal activity against carmine spider mite (% )

Cc1ncnc(NCCc2ccc(Oc3ccc(Cl)cc3)cc2)c1Cl [II-19]
protectant activity against corn rust in vivo (corn rust; 400 ppm): 100% | Insecticidal activity against peach aphid (%) ([1]; 10 mg/L, contrastive test): 100% | Insecticidal activity against peach aphid (%) ([1]; 100 mg/L, contrastive test): 100% | Insecticidal activity against peach aphid (%) ([1]; 600 mg/L, contrastive test): 100% | control (test results against green peach aphid) [1, 2]: 100% | control (test results against green peach aphid) [1, 3]: 100% | control (test results against green peach aphid) [1, 4]: 100% | Insecticidal activity against diamond back moth (%) (Diamond back moth; 10 mg/L): 50% | Insecticidal activity against diamond back moth (%) (Diamond back moth; 100 mg/L): 100% | Insecticidal activity against diamond back moth (%) (Diamond back moth; 600 mg/L): 100% | control (test results against diamond back moth) (Diamond back moth; [5]): 100% | control (test results against diamond back moth) (Diamond back moth; [6]): 100% | control (test results against armyworm) (armyworm): 100% | control against carmine spider mite (carmine spider mite; [5]): 100% | control against carmine spider mite (carmine spider mite; [6]): 100% | protectant activity against wheat powdery mildew in vivo (wheat powdery mildew): 100%

Cc1ncnc(NCCc2ccc(Oc3ccc(C(F)(F)F)cn3)cc2)c1Cl [Compound I-6733]
protectant activity against corn rust in vivo (corn rust; 100 ppm): 100% | protectant activity against corn rust in vivo (corn rust; 400 ppm): 100% | control (test results against green peach aphid) [1, 2]: 100% | control (test results against green peach aphid) [1, 3]: 100% | control (test results against green peach aphid) [1, 4]: 100% | Insecticidal activity against diamond back moth (%) (Diamond back moth; 10 mg/L): 40% | Insecticidal activity against diamond back moth (%) (Diamond back moth; 100 mg/L): 68% | Insecticidal activity against diamond back moth (%) (Diamond back moth; 600 mg/L): 100% | control (test results against diamond back moth) (Diamond back moth; [6]): 100% | control (test results against armyworm) (armyworm): 100% | control against carmine spider mite (carmine spider mite; [5]): 100% | control against carmine spider mite (carmine spider mite; [6]): 100% | protectant activity against wheat powdery mildew in vivo (wheat powdery mildew): 100%

FC(F)(F)c1ccc(Oc2ccc(CCNc3ncnc4ccccc34)cc2)nc1 [CK12, reference compound]
pest or weed control at 6.25 µg/mL (corn rust; Zea mays, 168 h, read-out: control effect against corn rust (%), 6.25 mg/L, protectant activity): 75% | pest or weed control at 25 µg/mL (corn rust; Zea mays, 168 h, read-out: control effect against corn rust (%), 25 mg/L, protectant activity): 85% | pest or weed control at 100 µg/mL (corn rust; Zea mays, 168 h, read-out: control effect against corn rust (%), 100 mg/L, protectant activity): 100% | pest or weed control at 400 µg/mL (corn rust; Zea mays, 168 h, read-out: control effect against corn rust (%), 400 mg/L, protectant activity): 100% | pest or weed control at 10 µg/mL ([1]; Myzus persicae, foliar, 48 h, 10 mg/L, contrastive test, read-out: Insecticidal activity against peach aphid (%)): 73% | pest or weed control at 100 µg/mL ([1]; Myzus persicae, foliar, 48 h, 100 mg/L, contrastive test, read-out: Insecticidal activity against peach aphid (%)): 100% | pest or weed control at 600 µg/mL ([1]; Myzus persicae, foliar, 48 h, 600 mg/L, contrastive test, read-out: Insecticidal activity against peach aphid (%)): 100% | pest or weed control at 10 µg/mL (Diamond back moth; 72 h, 10 mg/L): 0% | pest or weed control at 100 µg/mL (Diamond back moth; 72 h, 100 mg/L): 35% | pest or weed control at 600 µg/mL (Diamond back moth; 72 h, 600 mg/L): 100% | pest or weed control at 10 µg/mL (armyworm; 72 h, 10 mg/L, read-out: Insecticidal activity against armyworm (%)): 0% | pest or weed control at 100 µg/mL (armyworm; 72 h, 100 mg/L, read-out: Insecticidal activity against armyworm (%)): 20% | pest or weed control at 600 µg/mL (armyworm; 72 h, 600 mg/L, read-out: Insecticidal activity against armyworm (%)): 86% | pest or weed control at 100 µg/mL (carmine spider mite; [7]): 41% | pest or weed control at 600 µg/mL (carmine spider mite; [7]): 100% | pest or weed control at 6.25 µg/mL (wheat powdery mildew; Triticum aestivum, 168 h, read-out: control effect against wheat powdery mildew (%), 6.25 mg/L, protectant activity): 0% | pest or weed control at 25 µg/mL (wheat powdery mildew; Triticum aestivum, 168 h, read-out: control effect against wheat powdery mildew (%), 25 mg/L, protectant activity): 0% | pest or weed control at 100 µg/mL (wheat powdery mildew; Triticum aestivum, 168 h, read-out: control effect against wheat powdery mildew (%), 100 mg/L, protectant activity): 30% | pest or weed control at 400 µg/mL (wheat powdery mildew; Triticum aestivum, 168 h, read-out: control effect against wheat powdery mildew (%), 400 mg/L, protectant activity): 80%

Cc1ncnc(NCCc2ccc(Oc3ccc(C(F)(F)F)cn3)cc2)c1Cl [Compound I-6729]
protectant activity against corn rust in vivo (corn rust; 25 ppm): 100% | protectant activity against corn rust in vivo (corn rust; 400 ppm): 100% | pest or weed control at 100 ppm (corn rust; Zea mays, 168 h, read-out: protectant activity against corn rust in vivo, 100 ppm): 100% | control (test results against green peach aphid) [1, 3]: 100% | control (test results against green peach aphid) [1, 4]: 100% | pest or weed control at 10 ppm ([1]; Myzus persicae, foliar, 48 h, 10 ppm, death rate after 48 hrs): 100% | pest or weed control at 600 ppm (Diamond back moth; 72 h, 600 ppm, mortality after 72 hrs, read-out: control (test results against diamond back moth)): 100% | control (test results against armyworm) (armyworm): 100% | Insecticidal activity against carmine spider mite (% ) (carmine spider mite; 2.5 mg/L): 64% | Insecticidal activity against carmine spider mite (% ) (carmine spider mite; 5 mg/L): 78% | control against carmine spider mite (carmine spider mite; [5]): 100% | pest or weed control at 10 µg/mL (carmine spider mite; Tetranychus cinnabarinus, 72 h, 10 mg/L, contrastive test, read-out: Insecticidal activity against carmine spider mite (% )): 87% | pest or weed control at 100 µg/mL (carmine spider mite; [7]): 100% | pest or weed control at 600 µg/mL (carmine spider mite; [7]): 100% | pest or weed control at 600 ppm (carmine spider mite; Tetranychus cinnabarinus, 72 h, 600 ppm, mortality after 72 hrs): 100% | protectant activity against wheat powdery mildew in vivo (wheat powdery mildew): 100% | pest or weed control at 100 ppm (wheat powdery mildew; Triticum aestivum, 168 h, read-out: protectant activity against wheat powdery mildew in vivo, 100 ppm): 100%
